Source: the supplement of paper PMC10331698
± gives the standard deviation of the averaged measurements.

How the values were obtained:
Test in all cases: level (log10 ratio to DMSO vehicle control); higher = higher biomarker level / cell amount than vehicle control
[1] = compound: O=C(Cl)C(F)(F)C(F)(F)C(F)(F)C(=O)Cl [Hexafluoroglutaryl chloride]; settings: in DMSO
Method: (§1)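 BioMAP Diversity Plus panel of 12 human primary cell co-culture systems (3C, 4H, LPS, SAg, BT, BF4T, BE3C, CASM3C, HDF3CGF, KF3CT, MyoF, Mphg). Compounds were added 1 h before stimulation and left for 24 h (MyoF 48 h; BT 72 h for soluble read-outs or 6 d for IgG). Biomarkers were read by ELISA, cytotoxicity by SRB, PBMC viability and proliferation by Alamar Blue. Each well value was divided by the mean of 8 DMSO control wells on the same plate and log10 transformed; duplicate blinded samples were tested at 4 concentrations.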

[2] = compound: OCCC(F)(F)C(F)(F)C(F)(F)C(F)(F)C(F)(F)C(F)(F)C(F)(F)C(F)(F)F [8:2 Fluorotelomer alcohol]; settings: 6700 nM; in DMSO
Method: as §1

[3] = compound: O=S(=O)(OCC(F)(F)F)C(F)(F)C(F)(F)C(F)(F)C(F)(F)F [2,2,2-Trifluoroethyl perfluorobutanesulfonate]; settings: in DMSO
Method: as §1

[4] = compound: FC(F)(I)C(F)(F)C(F)(F)C(F)(F)C(F)(F)C(F)(F)I [1,6-Diiodoperfluorohexane]; settings: 6700 nM; in DMSO
Method: as §1

[5] = compound: O=C(O)C(F)(F)C(F)(F)C(F)(F)C(F)(F)C(F)(F)C(F)(F)C(F)(F)F [Ammonium perfluorooctanoate]; settings: in DMSO
Method: as §1

[6] = compound: O=C(O)C(F)(F)C(F)(F)C(F)(F)C(F)(F)C(F)(F)C(F)(F)C(F)(F)F [Perfluorooctanoic acid]; settings: in DMSO
Method: as §1

[7] = compound: C=CC(=O)OCC(F)(F)C(F)(F)C(F)(F)C(F)(F)COC(=O)C=C [1H,1H,6H,6H-Perfluorohexane-1,6-diol diacrylate]; settings: 6700 nM; in DMSO
Method: as §1

[8] = compound: C=C(C)C(=O)OCC(F)(F)C(F)(F)C(F)(F)F [2,2,3,3,4,4,4-Heptafluorobutyl methacrylate]; settings: in DMSO
Method: as §1

Row | Test System | level (log10) ([1]; 6700 nM) | level (log10) ([1]; 20000 nM) | level (log10) ([1]; 60000 nM) | level (log10) [2] | level (log10) ([3]; 6700 nM) | level (log10) ([3]; 20000 nM) | level (log10) ([3]; 60000 nM) | level (log10) [4] | level (log10) ([5]; 6700 nM) | level (log10) ([5]; 20000 nM) | level (log10) ([5]; 60000 nM) | level (log10) ([6]; 6700 nM) | level (log10) ([6]; 20000 nM) | level (log10) ([6]; 60000 nM) | level (log10) [7] | level (log10) ([8]; 6700 nM) | level (log10) ([8]; 20000 nM) | level (log10) ([8]; 60000 nM)
1 | BF4T:CXCL8/IL-8 | 0.045 ± 0.086 | 0.037 ± 0.072 | 0.048 ± 0.089 | -0.0095 ± 0.0092 | 0.0295 ± 0.0064 | 0.017 | 0.0385 ± 0.044 | -0.014 | 0.0135 ± 0.047 | 0.043 ± 0.058 | 0.04 ± 0.088 | -0.0035 ± 0.013 | -0.0085 ± 0.0035 | -0.0025 ± 0.016 | -0.0265 ± 0.013 | 0.044 ± 0.047 | 0.0155 ± 0.073 | 0.037 ± 0.037
2 | BT:B cell Proliferation | 0.01 | -0.024 ± 0.0057 | -0.0095 ± 0.026 | 0.0245 ± 0.0064 | 0.019 ± 0.0042 | 0.0295 ± 0.019 | 0.024 ± 0.023 | -0.019 | 0.0065 ± 0.047 | 0.0165 ± 0.012 | 0.0515 ± 0.026 | 0.0195 ± 0.018 | 0.027 ± 0.021 | 0.097 ± 0.0099 | -0.188 ± 0.0057 | -0.0305 ± 0.076 | -0.02 ± 0.086 | -0.058 ± 0.011
3 | BF4T:CD90 | 0.0005 ± 0.013 | -0.002 ± 0.018 | -0.0035 ± 0.0035 | -0.022 ± 0.0099 | 0.004 ± 0.0099 | -0.007 ± 0.023 | -0.009 ± 0.011 | -0.059 | -0.007 ± 0.0028 | -0.015 ± 0.0028 | -0.001 ± 0.0028 | -0.0095 ± 0.022 | -0.006 ± 0.0028 | -0.0105 ± 0.019 | -0.0265 ± 0.0021 | 0 ± 0.0071 | -0.004 ± 0.0057 | -0.007 ± 0.0042
4 | 3C:Proliferation | -0.0045 ± 0.026 | 0.006 ± 0.018 | -0.0345 ± 0.036 | -0.0465 ± 0.005 | 0.002 ± 0.062 | -0.025 ± 0.04 | -0.0475 ± 0.028 | -0.102 | -0.001 ± 0.034 | 0.015 ± 0.0042 | -0.0635 ± 0.08 | -0.0155 ± 0.015 | -0.003 ± 0.0099 | -0.08 ± 0.02 | -0.307 ± 0.084 | -0.0315 ± 0.044 | -0.0325 ± 0.033 | -0.049 ± 0.02
5 | LPS:CCL2/MCP-1 | 0.0165 ± 0.005 | 0.008 ± 0.041 | 0.0265 ± 0.033 | 0.0055 ± 0.011 | -0.0345 ± 0.012 | -0.0435 ± 0.022 | -0.101 ± 0.067 | 0.01 | -0.0095 ± 0.0035 | -0.001 ± 0.031 | 0.0105 ± 0.0092 | -0.0035 ± 0.00071 | 0.013 | 0.0525 ± 0.022 | -0.0285 ± 0.019 | 0.0125 ± 0.015 | -0.002 ± 0.0028 | 0.018 ± 0.02
